The values below are quoted from earlier work in patent US20030181501A1 (priority 2001, published 2003).

For this data set the following is noted: Dionne (1999).

Regarding `Cc1onc(-c2ccccc2)c1-c1ccc(S(N)(=O)=O)cc1` [Valdecoxib, 4-(5-methyl-3-phenyl-4-isoxazolyl)benzenesulfonamide], the Solubility in water entry is listed as “extremely low solubility in water”.
